Results: the NIST ThermoML archive (doi:10.1016/j.tca.2013.08.031)

Experiment: molar heat capacity at constant volume
Conditions: Fluid (supercritical or subcritical phases), Vacuum adiabatic calorimetry

CCC(C)O (stereo not given) [butan-2-ol]
Conditions | molar heat capacity at constant volume [J/K/mol]
307.37 K, Mass density=794.06 kg/m3 | 167.81
307.62 K, Mass density=794.06 kg/m3 | 154.62
307.87 K, Mass density=794.06 kg/m3 | 157.58
308.12 K, Mass density=794.06 kg/m3 | 160.7
308.37 K, Mass density=794.06 kg/m3 | 163.88
308.62 K, Mass density=794.06 kg/m3 | 165.44
308.87 K, Mass density=794.06 kg/m3 | 167.74
309.12 K, Mass density=794.06 kg/m3 | 167.81
309.37 K, Mass density=794.06 kg/m3 | 168.4
309.62 K, Mass density=794.06 kg/m3 | 167.22
311.11 K, Mass density=794.06 kg/m3 | 182.78
321.67 K, Mass density=794.06 kg/m3 | 204.87
323.61 K, Mass density=794.06 kg/m3 | 208.36
323.85 K, Mass density=794.06 kg/m3 | 208.87
324.09 K, Mass density=794.06 kg/m3 | 208.06
324.33 K, Mass density=794.06 kg/m3 | 208.8
324.57 K, Mass density=794.06 kg/m3 | 208.8
324.81 K, Mass density=794.06 kg/m3 | 207.99
325.06 K, Mass density=794.06 kg/m3 | 209.76
325.3 K, Mass density=794.06 kg/m3 | 210.43
325.54 K, Mass density=794.06 kg/m3 | 211.25
325.78 K, Mass density=769.05 kg/m3 | 223.77
325.78 K, Mass density=794.06 kg/m3 | 210.73
326.02 K, Mass density=769.05 kg/m3 | 224.88
326.02 K, Mass density=794.06 kg/m3 | 211.32
326.26 K, Mass density=769.05 kg/m3 | 226.22
326.26 K, Mass density=794.06 kg/m3 | 213.03
326.5 K, Mass density=769.05 kg/m3 | 226.29
326.74 K, Mass density=769.05 kg/m3 | 227.11
326.98 K, Mass density=769.05 kg/m3 | 226.59
327.22 K, Mass density=769.05 kg/m3 | 226.59
327.22 K, Mass density=794.06 kg/m3 | 213.54
327.46 K, Mass density=794.06 kg/m3 | 212.51
327.7 K, Mass density=794.06 kg/m3 | 212.8
327.94 K, Mass density=794.06 kg/m3 | 212.73
328.18 K, Mass density=794.06 kg/m3 | 212.43
333.2 K, Mass density=769.05 kg/m3 | 231.33
333.44 K, Mass density=769.05 kg/m3 | 232.45
333.67 K, Mass density=769.05 kg/m3 | 231.78
333.91 K, Mass density=769.05 kg/m3 | 232.59
334.15 K, Mass density=769.05 kg/m3 | 232.82
334.39 K, Mass density=769.05 kg/m3 | 233.04
334.62 K, Mass density=769.05 kg/m3 | 232.82
334.86 K, Mass density=769.05 kg/m3 | 233.63
335.1 K, Mass density=769.05 kg/m3 | 234.15
335.33 K, Mass density=769.05 kg/m3 | 233.41
335.57 K, Mass density=769.05 kg/m3 | 225.63
335.81 K, Mass density=769.05 kg/m3 | 219.55
336.04 K, Mass density=769.05 kg/m3 | 213.77
336.28 K, Mass density=769.05 kg/m3 | 209.39
336.52 K, Mass density=769.05 kg/m3 | 207.32
336.75 K, Mass density=769.05 kg/m3 | 207.02
337.46 K, Mass density=769.05 kg/m3 | 204.72
337.93 K, Mass density=769.05 kg/m3 | 204.8
338.64 K, Mass density=769.05 kg/m3 | 204.35
339.34 K, Mass density=769.05 kg/m3 | 203.76
349.82 K, Mass density=735.98 kg/m3 | 241.34
350.05 K, Mass density=735.98 kg/m3 | 242.01
350.28 K, Mass density=735.98 kg/m3 | 243.56
350.51 K, Mass density=735.98 kg/m3 | 243.19
350.74 K, Mass density=735.98 kg/m3 | 243.49
352.35 K, Mass density=769.05 kg/m3 | 218.36
352.58 K, Mass density=769.05 kg/m3 | 219.99
353.27 K, Mass density=735.98 kg/m3 | 242.23
353.49 K, Mass density=735.98 kg/m3 | 245.19
353.72 K, Mass density=735.98 kg/m3 | 244.68
353.95 K, Mass density=735.98 kg/m3 | 243.34
354.18 K, Mass density=735.98 kg/m3 | 245.12
354.41 K, Mass density=735.98 kg/m3 | 243.86
354.64 K, Mass density=735.98 kg/m3 | 245.56
364.16 K, Mass density=735.98 kg/m3 | 251.2
364.39 K, Mass density=735.98 kg/m3 | 251.35
364.61 K, Mass density=735.98 kg/m3 | 252.01
364.84 K, Mass density=735.98 kg/m3 | 252.16
365.06 K, Mass density=735.98 kg/m3 | 251.79
365.29 K, Mass density=735.98 kg/m3 | 251.79
365.51 K, Mass density=735.98 kg/m3 | 252.01
366.41 K, Mass density=735.98 kg/m3 | 253.2
366.63 K, Mass density=735.98 kg/m3 | 248.46
366.86 K, Mass density=735.98 kg/m3 | 245.27
367.08 K, Mass density=735.98 kg/m3 | 226.44
367.31 K, Mass density=735.98 kg/m3 | 219.84
367.53 K, Mass density=735.98 kg/m3 | 215.18
367.75 K, Mass density=735.98 kg/m3 | 213.69
367.98 K, Mass density=735.98 kg/m3 | 212.88
368.2 K, Mass density=735.98 kg/m3 | 213.25
369.54 K, Mass density=735.98 kg/m3 | 213.69
369.76 K, Mass density=735.98 kg/m3 | 214.43
369.99 K, Mass density=735.98 kg/m3 | 214.66
371.32 K, Mass density=683.53 kg/m3 | 261.13
371.54 K, Mass density=683.53 kg/m3 | 261.43
371.77 K, Mass density=683.53 kg/m3 | 261.72
371.99 K, Mass density=683.53 kg/m3 | 263.06
372.21 K, Mass density=683.53 kg/m3 | 263.95
372.43 K, Mass density=683.53 kg/m3 | 260.76
372.65 K, Mass density=683.53 kg/m3 | 259.87
373.1 K, Mass density=735.98 kg/m3 | 216.29
373.32 K, Mass density=735.98 kg/m3 | 217.25
373.54 K, Mass density=735.98 kg/m3 | 217.99
373.76 K, Mass density=735.98 kg/m3 | 219.7
373.98 K, Mass density=735.98 kg/m3 | 219.03
374.21 K, Mass density=735.98 kg/m3 | 216.66
374.43 K, Mass density=735.98 kg/m3 | 217.4
374.65 K, Mass density=735.98 kg/m3 | 217.47
374.87 K, Mass density=735.98 kg/m3 | 218.51
